A short description of the data set: Human HepG2 cell viability assay in 384 well format. The data set is classed as toxicity, cell-based. Also on record: dose 125 nL, time 70.5 hour; concentration not given beside the values. The note with it: HepG2 cells, read-out: Inhibition.

This passage reports cytotoxicity results from ChEMBL document CHEMBL3507680, “University of Dundee, Gates Library screen for HepG2 cell viability”.

SMILES strings stand for the structures.

`O=C(Cc1ccsc1)N1CCn2cc(CN3CCCC3)nc2C1`: the cytotoxicity at 70.5 h was -5.43%.
The same measure for `O=C(CC1CC1)NCc1cc(=O)n2c(n1)CN(Cc1ccoc1)CCC2`: -5.33%; for `Cc1nocc1C(=O)N1CCc2c(CN(C)C(C)C)n[nH]c2C1`: -8.09%; for `Cc1ccc(CC(=O)N2Cc3nccn3CC(Cn3cccn3)C2)cc1` (stereo not given): -0.504%.
The same measure for `Cc1noc([C@@H]2C[C@H]3OCC[C@H]3N(S(C)(=O)=O)C2)n1`: -8.57%; for `COCCNC(=O)C[C@@H]1COC[C@H]2CN(C(=O)c3cnccn3)C[C@@H]12`: -6.71%; for `COCCN1CCC2(CCCN(C(=O)c3cnoc3C)C2)C1=O` (stereo not given): -0.05%.
The same measure for `CN1C(=O)C[C@@H]2[C@@H]1CCN2C(=O)c1ccc[nH]1`: -2.89%; for `Cn1cc(CN2C[C@@H]3COC[C@]3(COc3ccc(C#N)cn3)C2)cn1`: -10.6%.
For the compound `Cc1ncsc1CN1C[C@@H]2COC[C@]2(COc2ccc(C#N)cn2)C1`, the cytotoxicity at 70.5 h is -4.4%.
The same measure for `COCCC(=O)N1CCC2(CN(Cc3ccc(OC)c(F)c3)C2)C1`: -9.17%.
As for `COC[C@@]12CCO[C@@H]1CCN(C(=O)Cc1ccccc1F)C2`, the cytotoxicity at 70.5 h was -10.5%.
The same measure for `COc1nn(C)c2c1CCCN(C(=O)c1ccccc1)C2`: -5.54%.
The same measure for `C[C@H]1C[C@H]2CN(C(=O)c3ccncn3)CC[C@H]2O1`: -0.543%.
The same measure for `O=C(Cc1cccs1)N1C[C@@H]2COC[C@]2(COc2cccnc2)C1`: -1.72%; for `CC(C)CC(=O)N1CCN(C(=O)N(C)C)CC2(CC(=O)N(C)C2)C1` (stereo not given): 0.114%.
In the case of `Cn1cc(-c2cnc(N3CCOCC3)nc2)cc1C(=O)O`, the cytotoxicity at 70.5 h is -2.63%.
The same measure for `CN1C[C@H]2CCN(C(=O)NC3CCCC3)CC[C@H]2S1(=O)=O`: -17.8%.
The same measure for `Cc1ncc(CN2CCc3nc4cc(C(C)(C)C)nn4c(O)c3C2)n1C`: 7.3%; for `Fc1ccc2[nH]c3c(c2c1)CCN1C(c2ccccn2)N2CCC31CC2` (stereo not given): 19%; for `CC1CCc2nn(CCNC(=O)c3cccs3)c(=O)cc2C1` (stereo not given): 25.2%.
The same measure for `CS(=O)(=O)N1CCC(Cc2cnc(Br)cn2)CC1`: -5.81%; for `Cn1cncc1CN1CCOC(Cc2ccccc2)C1` (stereo not given): -8.78%.
`CC(=O)N1CCC(c2cncc(N3CCC(O)C3)n2)CC1` (stereo not given): the cytotoxicity at 70.5 h is -2.45%.
The same measure for `Cc1nn(CC(C)C)cc1S(=O)(=O)N(C)Cc1nonc1C`: 0.131%; for `CCCn1cc(S(=O)(=O)N(C)Cc2nonc2C)c(C)n1`: -3.71%; for `CN(C)C(c1ccccn1)[C@H]1CC[C@H](CNC(=O)C2CC2)CC1` (stereo not given in full): 1.46%.
The same measure for `COCCC(=O)NC[C@H]1CC[C@H](C(c2ccccn2)N(C)C)CC1` (stereo not given in full): -2.06%; for `CC(C)c1[nH]c2ncccc2c1CN1CCC(O)CC1`: -3.13%; for `CCC1c2ccsc2CCN1Cc1cc2c(cc1OC)OCCO2` (stereo not given): 1.24%.
The same measure for `CCN(CC)CCCNCc1cc2cc(C)cc(C)c2[nH]c1=O`: 3.4%; for `CN(C)C(=O)Cn1c(C2CC2)c(CN2CCSCC2)c2cccnc21`: 1.03%.
As for `Cc1ccn(CCNC(=O)C2(C)CC(c3ccccc3)=NO2)n1` (stereo not given), the cytotoxicity at 70.5 h was -1.48%.
The same measure for `CCc1nc(N2CCOCC2)ncc1C(=O)NC(c1cccs1)C(C)C` (stereo not given): -0.678%; for `Cc1nccn1CCNC(=O)C1(C)CC(c2ccccc2)=NO1` (stereo not given): -3.18%; for `Cc1cccc(C2(O)CCN(Cc3ccccc3N3CCCC3)CC2)c1`: 16.9%.
The same measure for `Cc1cc(NCCNS(=O)(=O)c2cn(C)nc2C)c2ccccc2n1`: 13.5%; for `Oc1cc(-c2ccccn2)nc(C2CCN(Cc3ccncc3)CC2)n1`: 16.5%; for `CC(=O)N1C[C@H]2CCCN(S(=O)(=O)c3ccc(Cl)s3)[C@H]2C1`: 44.3%.
The same measure for `CC(C)c1[nH]c2ncccc2c1CN1CCN(S(=O)(=O)N(C)C)CC1`: -7.69%.
In the case of `COCCCNS(=O)(=O)c1ccc2c(c1)NC(=O)C(C)O2` (stereo not given), the cytotoxicity at 70.5 h is 1.94%.
The same measure for `CCN(CC)CCCNCc1cc2cccc(C)c2[nH]c1=O`: -4.69%; for `CC(C)c1ccc(CN[C@@H]2COC[C@H]2c2ccc(F)cc2)cc1`: -5.3%; for `CNc1nccnc1C1CN(C(=O)c2cc[nH]n2)CCO1` (stereo not given): -4.96%.
The same measure for `Cn1nc(C2CNCCO2)cc1CCOc1cccc(C(F)(F)F)c1` (stereo not given): 7.31%; for `O=C(NCCO)c1sc2ncccc2c1C1CNCCO1` (stereo not given): -4.56%.
The same measure for `c1cncc(CNc2cncc(C3CCCN3)n2)c1` (stereo not given): -8.46%.
Consider `CC1CCCN(Cc2c(C3CC3)n(CC(=O)N(C)C)c3ncccc23)C1` (stereo not given), for which the cytotoxicity at 70.5 h was 27.3%.
For the compound `Cc1cc(Oc2ccccc2F)nc(C2CCCCN2)n1` (stereo not given), the cytotoxicity at 70.5 h was -6.21%.
The same measure for `CC(=O)N1CCN(c2cc(C3CCNCC3)ccn2)CC1`: -1.18%; for `Cc1nc(C2CCCNC2)nc2c1CCCN2Cc1ccccn1` (stereo not given): -3.47%.
The same measure for `CCc1ccc(CN2C[C@@H]3OCCN(c4ccnc(N(C)C)n4)[C@@H]3C2)o1`: 5.59%; for `CS(=O)(=O)N1CCOCC2(CN(Cc3ccsc3)CCO2)C1` (stereo not given): 0.00349%; for `O=C(NCc1cc(=O)n2c(n1)CN(CC1CCOC1)CCC2)C1CC1` (stereo not given): -4.46%.
The same measure for `Cn1nnc2c1C(COCc1ccccn1)CN(C(=O)c1cccs1)C2` (stereo not given): 5.64%; for `Cc1cccc(CN2CCc3ncnc(C)c3CC2)n1`: -2.78%.
For `COCc1nn(C(C)C)c2c1CCN(Cc1cccs1)C2`, the cytotoxicity at 70.5 h was -6.03%.
The same measure for `c1cncc(-c2ccc3c(c2)C2(CC3)CCN(c3nncs3)CC2)c1`: -13.1%; for `c1nc2c(c(C3CC3)n1)CCN(Cc1ccc3c(c1)OCO3)CC2`: -4.69%; for `CN(Cc1ccco1)[C@@H]1CN(C(=O)c2ccnnc2)C[C@@H]2CCCO[C@@H]21`: -7.61%.
The same measure for `O=C(C1=CCCC1)N1CCC[C@]2(C[C@@H](Oc3ncccc3F)CO2)C1`: -6.43%; for `CN(Cc1ccco1)[C@@H]1CN(C(=O)c2ccnnc2)[C@@H]2CCCO[C@H]12`: 1.48%; for `CCO[C@@H]1CO[C@@]2(CCCN(Cc3scnc3C)C2)C1`: -11.1%.
The same measure for `CCO[C@H]1CO[C@@]2(CCCN(Cc3nc(C)cs3)C2)C1`: -10.1%.
Consider `CCCS(=O)(=O)N1CCC2(CN(c3cnn(C)c3)C(=O)CN2C)C1` (stereo not given), for which the cytotoxicity at 70.5 h was 0.667%.
The same measure for `C1CC(CN2CCO[C@H]3[C@H](OCC4CC4)CC[C@@H]32)CCO1`: -2.31%; for `O=C1[C@H]2CN(c3ncccn3)C[C@H]2CN1Cc1ccncc1`: 3.36%; for `Cn1cc(C(=O)NCc2cn3c(n2)CN(CC2CCOCC2)CC3)cn1`: -1.1%.
The same measure for `CN(C)C(=O)CC1CC2(CCN(c3ncccn3)CC2)c2ccccc21` (stereo not given): -0.293%; for `COCC1COCCC12CCN(CCc1ccccc1)CC2` (stereo not given): -0.938%.
The same measure for `CCn1cc2c(n1)CN(Cc1ccoc1)CC2COCC1CC1` (stereo not given): 6.36%; for `CN1CC(=O)N(c2ccsc2)CC12CCN(S(C)(=O)=O)C2` (stereo not given): 1.05%.
As for `O=C(Nc1cnccn1)[C@@H]1COC[C@H]2CN(C3CCCC3)C[C@H]21`, the cytotoxicity at 70.5 h is -3.18%.
The same measure for `COCCN1CC[C@@H](O)[C@@H]1Cc1ccccc1`: -16.9%; for `CCCS(=O)(=O)N1CCOCC2(CCN(c3ccccn3)C2)C1` (stereo not given): -11.6%; for `COC[C@H]1CCC[C@]12CN(CCc1ccccc1)CCO2`: -15.8%.
The same measure for `COCCNC(=O)[C@H]1CN(Cc2nccs2)C[C@H]2OCC[C@@H]12`: -2.35%; for `COCCNC(=O)[C@H]1CN(Cc2scnc2C)C[C@H]2OCC[C@@H]12`: -3.43%.
Turning to `CCN(CC)CC1CN(CCc2ccccc2)Cc2nccn2C1` (stereo not given), the cytotoxicity at 70.5 h is -4.11%.
The same measure for `Cc1nnc(N2C[C@@H](OCCCn3cccn3)[C@H]3OCCC[C@H]32)s1`: -9.45%; for `Cc1ncnc2c1CCN(Cc1ccccn1)CC2`: -4.71%; for `Cc1nnc(N2CCCC3(CN(Cc4ccncc4)CCO3)C2)o1` (stereo not given): -2.14%.
The same measure for `CN1CC(=O)N(c2cnn(C)c2)CC12CCN(Cc1ccccc1)C2` (stereo not given): 0.248%; for `Cc1nc(CN2CCOCC3(CCN(c4ncccn4)C3)C2)cs1` (stereo not given): -3.76%; for `O=C(Nc1cccnc1)[C@H]1COC[C@H]2CN(C3CCCC3)C[C@H]21`: 3.49%.
The same measure for `Cn1cc(CN2CCc3onc(COc4cccnc4)c3C2)cn1`: 14.8%; for `COc1ncccc1CN1C[C@@H]2COC[C@]2(COCC2CC2)C1`: -11.6%; for `O=C(C[C@@H]1COC[C@H]2CN(Cc3ccncc3)C[C@@H]12)N1CCOCC1`: -13.2%.
For `c1ccc(OCC2CC3(CCN(c4ncccn4)CC3)CO2)nc1` (stereo not given), the cytotoxicity at 70.5 h is -19.6%.
The same measure for `CO[C@H]1CCN(Cc2cccc(C)n2)[C@@H]2CN(Cc3cccnc3)C[C@H]12`: 1.87%; for `CCCSc1ncc(CN(C)CCN2CCCCC2)cn1`: -2.41%; for `Cn1cncc1CN1CCC(O)(Cn2nc(-c3cccs3)oc2=O)CC1`: -2.36%.
The same measure for `Cc1ccc(CN[C@@H]2COC[C@H]2c2ccc(F)cc2)cc1C`: 3.52%; for `CCOc1ccc(CN[C@@H]2COC[C@H]2c2ccc(F)cc2)cc1`: 29.1%; for `OCCN(Cc1ccncc1)CC1(c2ccc(Cl)cc2)CCCC1`: 1.74%.
